Data set [1] can be described thus: Solubility of stapled lipopeptides in buffer (FIG. 18). Type of data set: physicochemical. The following applies: 15 mg/mL in 15% DMSO, PBS pH 7.4. As to the method: Buffer conditions are 15 mg/mL in 15% DMSO, PBS pH 7.4.
The subject of data set [2] is live human Respiratory Syncytial Virus with Green Fluorescent Protein (RSV-GFP1). In kind it is cell-based. As to conditions: for improvement in anti-viral activity compared to the singly stapled RSV HR2 peptide of SEQ ID NO: 4: versus single staple alone with an additional 6 HR2 amino acids at the C-terminus; for antiviral activity in the GFP-RSV live virus assay (staple and PEG scanning): dose of 2 μM, RSV-GFP in A549 cells after 48 hours (FIG. 15). As to the method: Antiviral Efficacy Assays: The efficiency of the peptide-cholesterol conjugates of the invention in preventing and treating infection of live human Respiratory Syncytial Virus with Green Fluorescent Protein (RSV-GFP1) are evaluated in monolayer cell cultures. A549 cells plated in 384-well format are treated for 30 min with a serial dilution of stapled peptides (e.g. 1-5 […] or a fixed dose, e.g. […]), performed in quadruplicate, followed by addition of GFP-RSV live virus assay (0.75-1.25 μL of virus per well) and incubation for 48-72 hours. Infected cells are then washed with PBS. Hoechst 33342 (cell permeable nuclear dye) and DRAQ7 (cell impermeable nuclear dye) are added and the plate imaged on a Molecular Devices ImageXpress Micro Confocal Laser at 4× magnification. GFP (+) cells are counted and total GFP(+) cells or percent GFP(+) cells are plotted using Prism software (Graphpad). Cytotoxicity is determined by the ratio of DRAQ7 (+) Hoechst 33342 (+) to DRAQ7 (−) Hoechst 33342 (+) cells.

Data set [3] can be described thus: pI of stapled lipopeptides. Type of data set: physicochemical.
[4] abbreviates: GFP-RSV live virus, A549 cells, read-out at 48 hours (FIGS. 13, 16, 17), read-out: IC50, antiviral activity in live RSV virus assay.

Where two headings read alike, the source gives them in different places. Where a SMILES comes first, the peptide text is derived from it. Bridges are numbered along the chain shown (N, C = ends). Primed or numbered codes have the meaning given here. Where no end group is shown, it is not given here. Side-chain parts run from the residue outwards. [ ]: non-standard residue; d: D form. The star is where a group is joined. ξ: configuration not given here. thiocholesterol = thiocholesterol moiety attached via the PEG4 linker to the lysine epsilon side chain, CC(C)CCC[C@@H](C)[C@H]1CC[C@H]2[C@@H]3CC=C4C[C@@H](S*)CC[C@]4(C)[C@H]3CC[C@]12C; Acetyl(2-S-cholesteryl) = CC(C)CCC[C@@H](C)[C@H]1CC[C@H]2[C@@H]3CC=C4C[C@@H](SCC(=O)*)CC[C@]4(C)[C@H]3CC[C@]12C; Acetyl(2-S-3ξ-cholesteryl) = CC(C)CCC[C@@H](C)[C@H]1CC[C@H]2[C@@H]3CC=C4CC(SCC(=O)*)CC[C@]4(C)[C@H]3CC[C@]12C; PEG20 = NCCOCCOCCOCCOCCOCCOCCOCCOCCOCCOCCOCCOCCOCCOCCOCCOCCOCCOCCOCCOCCC(=O)O; PEG16 = NCCOCCOCCOCCOCCOCCOCCOCCOCCOCCOCCOCCOCCOCCOCCOCCOCCC(=O)O; PEG4′ = 4x polyethylene glycol linker; R8 = C=CCCCCCC[C@@](C)(N)C(=O)O; PEG4 = NCCOCCOCCOCCOCCC(=O)O; S5 = C=CCCC[C@](C)(N)C(=O)O

`CC[C@H](C)[C@H](NC(=O)[C@H](CO)NC(=O)[C@H](C)NC(=O)[C@H](CC(=O)O)NC(=O)[C@H](Cc1ccccc1)NC(C)=O)C(=O)N[C@@H](CO)C(=O)N[C@@H](CCC(N)=O)C(=O)N[C@H](C(=O)N[C@@H](CC(N)=O)C(=O)N[C@@H](CCC(=O)O)C(=O)N[C@@H](CCCCN)C(=O)N[C@H](C(=O)N[C@@H](CC(N)=O)C(=O)N[C@@H](CCC(N)=O)C(=O)N[C@@H](CO)C(=O)N[C@@H](CC(C)C)C(=O)N[C@]1(C)CCCCCCC=CCCC[C@@](C)(C(=O)N[C@@H](CC(C)C)C(=O)N[C@@H](CC(C)C)C(=O)N[C@@H](Cc2c[nH]cn2)C(=O)N[C@@H](CC(N)=O)C(=O)N[C@H](C(=O)N[C@@H](CCCCNC(=O)CCOCCOCCOCCOCCNC(=O)CSC2CC[C@@]3(C)C(=CC[C@H]4[C@@H]5CC[C@H]([C@H](C)CCCC(C)C)[C@@]5(C)CC[C@@H]43)C2)C(N)=O)C(C)C)NC(=O)[C@H](CC(=O)O)NC(=O)[C@H](CO)NC(=O)[C@H](CCCCN)NC(=O)[C@H](CCCNC(=N)N)NC(=O)[C@H]([C@@H](C)CC)NC(=O)[C@H](Cc2ccccc2)NC1=O)[C@@H](C)CC)C(C)C` (stereo partly drawn) [SEQ ID NO: 21, FDASISQVNEKINQSL8FIRKSDXLLHNV*] (Ac-FDASISQVNEKINQSL[R8]FIRKSD[S5]LLHNVK([PEG4-Acetyl(2-S-3ξ-cholesteryl)])-NH2; staple 17-24): the solubility entry was “visible pellet” in data set [1] and “Poor solubility” in data set [1] (listed as SEQ ID NO:21).
Regarding `CC[C@H](C)[C@H](NC(=O)[C@H](CO)NC(=O)[C@H](C)NC(=O)[C@H](CC(=O)O)NC(=O)[C@H](Cc1ccccc1)NC(C)=O)C(=O)N[C@@H](CO)C(=O)N[C@@H](CCC(N)=O)C(=O)N[C@H](C(=O)N[C@@H](CC(N)=O)C(=O)N[C@@H](CCC(=O)O)C(=O)N[C@@H](CCCCN)C(=O)N[C@H](C(=O)N[C@@H](CC(N)=O)C(=O)N[C@@H](CCC(N)=O)C(=O)N[C@@H](CO)C(=O)N[C@@H](CC(C)C)C(=O)N[C@]1(C)CCCCCCC=CCCC[C@@](C)(C(=O)N[C@@H](CC(C)C)C(=O)N[C@@H](CC(C)C)C(=O)N[C@@H](Cc2c[nH]cn2)C(=O)N[C@@H](CC(N)=O)C(=O)N[C@H](C(=O)N[C@@H](CCCCNC(=O)CCOCCOCCOCCOCCOCCOCCOCCOCCOCCOCCOCCOCCOCCOCCOCCOCCOCCOCCOCCOCCNC(=O)CS[C@H]2CC[C@@]3(C)C(=CC[C@H]4[C@@H]5CC[C@H]([C@H](C)CCCC(C)C)[C@@]5(C)CC[C@@H]43)C2)C(N)=O)C(C)C)NC(=O)[C@H](CC(=O)O)NC(=O)[C@H](CO)NC(=O)[C@H](CCCCN)NC(=O)[C@H](CCCNC(=N)N)NC(=O)[C@H]([C@@H](C)CC)NC(=O)[C@H](Cc2ccccc2)NC1=O)[C@@H](C)CC)C(C)C` [PEG20-thichol SEQ ID NO: 21] (Ac-FDASISQVNEKINQSL[R8]FIRKSD[S5]LLHNVK([PEG20-Acetyl(2-S-cholesteryl)])-NH2; staple 17-24), the IC50 in data set [2] (setting [4]) worked out at 8.2 nM.
With “PEG20-thiochol SEQ IQ NO: 5: SEQ ID NO:51 with PEG(n)-thiocholesterol linked via a C-terminal lysine, n is 20 (FDXSISQVNXKINQSLAFIRKSDELLHNVK; not fully specified; C-terminal Lys-PEG20-thiocholesterol; SITE 3 (R)-alpha-(7'-octenyl)alanine; SITE 10 (S)-alpha-(4'-pentenyl)alanine; SITE 30 Residue attached to 20x polyethylene glycol thiocholesterol)”, the IC50 in data set [2] (setting [4]) was determined as 60 nM. Moreover, the “improvement in anti-viral activity compared to the singly stapled RSV HR2 peptide of SEQ ID NO: 4” value in data set [2] is given as “greater than two orders of magnitude”.
Regarding “FDASISQVN8KINQSLXFIRKSDELLHNV* (FDASISQVNXKINQSLXFIRKSDELLHNVK; not fully specified; Lys(epsilon-(PEG)4-thiocholesterol); non-natural residues 8, X; SITE 10 (R)-alpha-(7'-octenyl)alanine; SITE 17 (S)-alpha-(4'-pentenyl)alanine; SITE 30 Residue side chain modified at the epsilon carbon with 4x polyethylene glycol attached to thiocholesterol) [SEQ ID NO: 14]”, in data set [2], the “antiviral activity in the GFP-RSV live virus assay (staple and PEG scanning)” value (shortened to “antiviral activity”) is “potent activity”.
Still for that read-out and setting: under “8DASISQXNEKINQSLAFIRKSDELLHNV* ([R8]DASISQ[S5]NEKINQSLAFIRKSDELLHNVK([PEG4′-thiocholesterol]); staple 1-8) [SEQ ID NO: 6, * =Lys(epsilon-(PEG)4-thiocholesterol)]” stands “potent activity”.
In the case of `CC[C@H](C)[C@H](NC(=O)[C@H](Cc1ccccc1)NC(=O)[C@H](C)NC(=O)[C@H](CC(C)C)NC(=O)[C@H](CO)NC(=O)[C@H](CCC(N)=O)NC(=O)[C@H](CC(N)=O)NC(=O)[C@@H](NC(=O)[C@H](CCCCN)NC(=O)[C@]1(C)CCCC=CCCCCCC[C@@](C)(NC(=O)[C@H](CC(=O)O)NC(=O)[C@H](Cc2ccccc2)NC(C)=O)C(=O)N[C@@H](CO)C(=O)N[C@@H]([C@@H](C)CC)C(=O)N[C@@H](CO)C(=O)N[C@@H](CCC(N)=O)C(=O)N[C@@H](C(C)C)C(=O)N[C@@H](CC(N)=O)C(=O)N1)[C@@H](C)CC)C(=O)N[C@@H](CCCNC(=N)N)C(=O)N[C@@H](CCCCN)C(=O)N[C@@H](CO)C(=O)N[C@@H](CC(=O)O)C(=O)N[C@@H](CCC(=O)O)C(=O)N[C@@H](CC(C)C)C(=O)N[C@@H](CC(C)C)C(=O)N[C@@H](Cc1c[nH]cn1)C(=O)N[C@@H](CC(N)=O)C(=O)N[C@H](C(=O)N[C@@H](CCCCNC(=O)CCOCCOCCOCCOCCNC(=O)CS[C@H]1CC[C@@]2(C)C(=CC[C@H]3[C@@H]4CC[C@H]([C@H](C)CCCC(C)C)[C@@]4(C)CC[C@@H]32)C1)C(N)=O)C(C)C` [SEQ ID NO: 5, FD8SISQVNXKINQSLAFIRKSDELLHNV*] (Ac-FD[R8]SISQVN[S5]KINQSLAFIRKSDELLHNVK([PEG4-Acetyl(2-S-cholesteryl)])-NH2; staple 3-10), in data set [2] (setting [4]), the IC50 worked out at 130 nM. In data set [2], the “antiviral activity” value is “potent activity”; the “improvement in anti-viral activity compared to the singly stapled RSV HR2 peptide of SEQ ID NO: 4” value is listed as “an order of magnitude”. Further, the IC50 in data set [2] (live RSV virus (FIG. 13), read-out: IC50, infectivity assay using live RSV virus) stood at 130 nM.
With “SDEFDASISQVNEKINQSL8FIRKSDXLLHNV* (SDEFDASISQVNEKINQSL[R8]FIRKSD[S5]LLHNV; staple 20-27; also: C-terminal linker-lipid (*), exact composition not fixed) [SEQ ID NO: 281]”, the solubility result in data set [1] is “fully soluble”; in data set [1] (listed as SEQ ID NO:21 with three native N-terminal residues “SDE”), “complete solubility”. The pI in data set [3] was found to be 4.7.
On to “PEG16-thiochol SEQ IQ NO: 5: SEQ ID NO:51 with PEG(n)-thiocholesterol linked via a C-terminal lysine, n is 16 (FDXSISQVNXKINQSLAFIRKSDELLHNVK; not fully specified; C-terminal Lys-PEG16-thiocholesterol; SITE 3 (R)-alpha-(7'-octenyl)alanine; SITE 10 (S)-alpha-(4'-pentenyl)alanine; SITE 30 Residue attached to 16x polyethylene glycol thiocholesterol)”, for which the IC50 in data set [2] (setting [4]) is 49 nM. For the same molecule, in data set [2], the “improvement in anti-viral activity compared to the singly stapled RSV HR2 peptide of SEQ ID NO: 4” value is “greater than two orders of magnitude”.
As to “FDASISQVNEKINQSLAFI8KSDELLXNV* (FDASISQVNEKINQSLAFI[R8]KSDELL[S5]NVK([PEG4′-thiocholesterol]); staple 20-27 (inferred)) [SEQ ID NO: 24, * =Lys(epsilon-(PEG)4-thiocholesterol)]”, in data set [2], the “antiviral activity” value is “potent activity”.
In the case of `CC[C@H](C)[C@H](NC(=O)[C@H](CO)NC(=O)[C@H](C)NC(=O)[C@H](CC(=O)O)NC(=O)[C@H](Cc1ccccc1)NC(C)=O)C(=O)N[C@@H](CO)C(=O)N[C@@H](CCC(N)=O)C(=O)N[C@H](C(=O)N[C@@H](CC(N)=O)C(=O)N[C@@H](CCC(=O)O)C(=O)N[C@@H](CCCCN)C(=O)N[C@H](C(=O)N[C@@H](CC(N)=O)C(=O)N[C@@H](CCC(N)=O)C(=O)N[C@@H](CO)C(=O)N[C@@H](CC(C)C)C(=O)N[C@]1(C)CCCCCCC=CCCC[C@@](C)(C(=O)N[C@@H](CC(C)C)C(=O)N[C@@H](CC(C)C)C(=O)N[C@@H](Cc2c[nH]cn2)C(=O)N[C@@H](CC(N)=O)C(=O)N[C@H](C(=O)N[C@@H](CCCCNC(=O)CCOCCOCCOCCOCCOCCOCCOCCOCCOCCOCCOCCOCCOCCOCCOCCOCCNC(=O)CS[C@H]2CC[C@@]3(C)C(=CC[C@H]4[C@@H]5CC[C@H]([C@H](C)CCCC(C)C)[C@@]5(C)CC[C@@H]43)C2)C(N)=O)C(C)C)NC(=O)[C@H](CC(=O)O)NC(=O)[C@H](CO)NC(=O)[C@H](CCCCN)NC(=O)[C@H](CCCNC(=N)N)NC(=O)[C@H]([C@@H](C)CC)NC(=O)[C@H](Cc2ccccc2)NC1=O)[C@@H](C)CC)C(C)C` [PEG16-thiochol SEQ ID NO: 21] (Ac-FDASISQVNEKINQSL[R8]FIRKSD[S5]LLHNVK([PEG16-Acetyl(2-S-cholesteryl)])-NH2; staple 17-24), in data set [2] (setting [4]), the IC50 stood at 18 nM.

Source of the values: patent US20260041753A1, “RESPIRATORY SYNCYTIAL VIRUS SURFACE GL[…], CONJUGATES, AND USES THEREOF” (Dana-Farber Cancer Institute, Inc., priority 2023, published 2026).
